From patent publication US12258329B2 (Merck Sharp & Dohme LLC, priority 2018, dated 2025)

Test system: infected PBMCs (VSV-G pseudotyped HIV virus VSV-G/pNLG1-P2A-ΔEnv)
Experiment: cells
Assay type: cell-based, human
Settings: Homo sapiens, PBMC, read-out: TACK EC50

SMILES	EC50 [nM]
Cc1nc(C)c(Cn2cnc(C(C)(F)F)c(Oc3cc(Cl)cc(C#N)c3C)c2=O)c(=O)[nH]1 [Example 4, 5-chloro-3-((4-(1,1-difluoroethyl)-1-((2,4-dimethyl-6-oxo-1,6-dihydropyrimidin-5-yl)methyl)-6-oxo-1,6-dihydropyrimidin-5-yl)oxy)-2-methylbenzonitrile]	412
Cc1nc(C)c(Cn2cnc(C(F)(F)F)c(Oc3c(C)cc(C#N)cc3C)c2=O)c(=O)[nH]1 [Example 77, 4-((1-((2,4-dimethyl-6-oxo-1,6-dihydropyrimidin-5-yl)methyl)-6-oxo-4-(trifluoromethyl)-1,6-dihydropyrimidin-5-yl)oxy)-3,5-dimethylbenzonitrile]	409
Cc1nc(C)c(Cn2cnc(C(F)(F)C(F)F)c(Oc3cc(Br)cc(C#N)c3)c2=O)c(=O)[nH]1 [Example 7, 3-bromo-5-((1-((2,4-dimethyl-6-oxo-1,6-dihydropyrimidin-5-y1)methyl)-6-oxo-4-(1,1,2,2-tetrafluoroethyl)-1,6-dihydropyrimidin-5-yl)oxy)benzonitrile]	353
Cc1cc(C#N)c(F)c(Oc2c(C(C)(F)F)ncn(Cc3c(C)nc(C)[nH]c3=O)c2=O)c1 [Example 41, 3-((4-(1,1-difluoroethyl)-1-((2,4-dimethyl-6-oxo-1,6-dihydropyrimidin-5-yl)methyl)-6-oxo-1,6-dihydropyrimidin-5-yl)oxy)-2-fluoro-5-methylbenzonitrile]	363
Cc1cc(C#N)cc(C)c1Oc1c(C(F)(F)C(F)F)ncn(Cc2c(C)nc(CCCO)[nH]c2=O)c1=O [Example 50, 4-((1-((2-(3-hydroxypropyl)-4-methyl-6-oxo-1,6-dihydropyrimidin-5-yl)methyl)-6-oxo-4-(1,1,2,2-tetrafluoroethyl)-1,6-dihydropyrimidin-5-yl)oxy)-3,5-dimethylbenzonitrile]	250
Cc1nc(CF)c(Cn2cnc(C(F)(F)C(F)(F)F)c(Oc3cc(C(F)F)cc(C#N)c3C)c2=O)c(=O)[nH]1 [Example 64, 5-(difluoromethyl)-3-((1-((4-(fluoromethyl)-2-methyl-6-oxo-1,6-dihydropyrimidin-5-yl)methyl)-6-oxo-4-(perfluoroethyl)-1,6-dihydropyrimidin-5-yl)oxy)-2-methylbenzonitrile]	162
Cc1nc(C)c(Cn2cnc(C(F)(F)F)c(Oc3cc(Cl)cc(C#N)c3Cl)c2=O)c(=O)[nH]1 [Example 90, 2,5-dichloro-3-((1-((2,4-dimethyl-6-oxo-1,6-dihydropyrimidin-5-yl)methyl)-6-oxo-4-(trifluoromethyl)-1,6-dihydropyrimidin-5-yl)oxy) benzonitrile]	489
Cc1nc(C)c(Cn2cnc(C(C)(F)F)c(Oc3cc(C#N)cc(C(F)F)c3)c2=O)c(=O)[nH]1 [Example 23, 3-((4-(1,1-difluoroethyl)-1-((2,4-dimethyl-6-oxo-1,6-dihydropyrimidin-5-yl)methyl)-6-oxo-1,6-dihydropyrimidin-5-yl)oxy)-5-(difluoromethyl)benzonitrile]	429
Cc1nc(C)c(Cn2cnc(C(F)(F)C(F)F)c(Oc3cc(C(F)F)cc(C#N)c3C)c2=O)c(=O)[nH]1 [Example 66, 5-(difluoromethyl)-3-((1-((2,4-dimethyl-6-oxo-1,6-dihydropyrimidin-5-yl)methyl)-6-oxo-4-(1,1,2,2-tetrafluoroethyl)-1,6-dihydropyrimidin-5-yl)oxy)-2-methylbenzonitrile]	262
Cc1nc(C)c(Cn2cnc(C(F)(F)C(F)F)c(Oc3c(C)cc(C#N)cc3Cl)c2=O)c(=O)[nH]1 [Example 98, 3-chloro-4-((1-((2,4-dimethyl-6-oxo-1,6-dihydropyrimidin-5-yl)methyl)-6-oxo-4-(1,1,2,2-tetrafluoroethyl)-1,6-dihydropyrimidin-5-yl)oxy)-5-methylbenzonitrile]	183
Cc1nc(C)c(Cn2cnc(C(F)(F)C(F)F)c(Oc3c(Cl)cc(C#N)cc3Cl)c2=O)c(=O)[nH]1 [Example 97, 3,5-dichloro-4-((1-((2,4-dimethyl-6-oxo-1,6-dihydropyrimidin-5-yl)methyl)-6-oxo-4-(1,1,2,2-tetrafluoroethyl)-1,6-dihydropyrimidin-5-yl)oxy)benzonitrile]	182
